Data reported in ChEMBL document CHEMBL5096216, “Rational Design, Synthesis, and Biological Evaluation of Novel S1PR2 Antagonists for Reversing 5-FU-Resistance in Colorectal Cancer” (J Med Chem, 2022).
Activity calls are given as the source filed them. The calls are words filed in the database; no cut-off is given here.

Tests used:
[1] = biological target: Sphingosine 1-phosphate receptor 1 (Homo sapiens, UniProt P21453); test: Binding affinity to S1PR1 (unknown origin) assessed as dissociation constant by surface plasmon resonance analysis
[2] = biological target: Sphingosine 1-phosphate receptor 2 (Homo sapiens, UniProt O95136); test: Inhibition of FBAL stimulated S1PR2 in human SW620/5-FU cells incubated for 72 hrs by Western blot analysis; assay type: cell-based; conditions: dose 5-15 µM, DDE = dose-dependent effect
SW620/5-FU [3] = test: Upregulation of H3K27me3 expression in human SW620/5-FU cells incubated for 12 hrs by Western blot analysis; assay type: functional, cell-based; conditions: dose 2.5-20 µM, DDE = dose-dependent effect
SW620/5-FU [4] = test: Antiproliferative activity against human SW620/5-FU cells assessed as reduction in cell viability incubated for 48 hrs by MTT assay; assay type: functional, cell-based
SW620/5-FU [5] = test: Induction of apoptosis in human SW620/5-FU cells assessed as viable cells at 10 uM incubated for 24 hrs in presence of 5-FU by Annexin-V/PI staining based flow cytometry assay (reference value: 94.3%); assay type: functional; conditions: read-out: Activity
Mus musculus [6] = test: In vivo inhibition of liver DPD expression in human SW620/5-FU cells xenografted in nude mouse at 1 to 10 mg/kg/day by Western blot analysis; assay type: functional, organism-based; conditions: dose 1-10 mg/kg/day
[7] = biological target: Sphingosine 1-phosphate receptor 3 (Homo sapiens, UniProt Q99500); test: Binding affinity to S1PR3 (unknown origin) assessed as dissociation constant by surface plasmon resonance analysis
SW620/5-FU [8] = test: Antitumor activity against human SW620/5-FU cells xenografted in nude mouse assessed as tumor volume at 10 mg/kg/day, iv measured on day 1 in presence of 5-FU (reference value: 105 +/- 14 mm3); assay type: functional; conditions: time 1 day
HT-29 [9] = test: Reversal of 5-FU resistance in human HT-29 cells assessed as reduction in cell viability incubated for 48 hrs in presence of 5-FU by MTT assay; assay type: functional, cell-based; conditions: HT-29, 48 h
Mus musculus [10] = test: In vivo inhibition of tumor DPD expression in human SW620/5-FU cells xenografted in nude mouse at 1 to 10 mg/kg/day by Western blot analysis; assay type: functional, organism-based; conditions: dose 1-10 mg/kg/day
SW620/5-FU [11] = test: Induction of apoptosis in human SW620/5-FU cells assessed as necrotic cells at 10 uM incubated for 24 hrs in presence of 5-FU by Annexin-V/PI staining based flow cytometry assay (reference value: 0%); assay type: functional
SW620/5-FU [12] = test: Downregulation of JMJD3 expression in human SW620/5-FU cells incubated for 12 hrs by Western blot analysis; assay type: functional, cell-based; conditions: dose 2.5-20 µM, DDE = dose-dependent effect
HCT-116 [13] = test: cells; conditions: Homo sapiens, HCT-116, 48 h
Description: Reversal of 5-FU resistance in human HCT-116 cells overexpressing DPD assessed as reduction in 5-Fluorouracil IC50 at 5 uM incubated for 48 hrs (Rvb = 1836.66 +/- 87.95 %)

[14] = Metabolic stability in human plasma assessed as compound remaining at 1 mg/ml measured after 48 hrs by HPLC analysis; assay type: ADME, cell-free; conditions: read-out: Stability
SW620/5-FU [15] = test: Antitumor activity against human SW620/5-FU cells xenografted in nude mouse assessed as tumor volume at 5 mg/kg/day, iv measured on day 15 in presence of 5-FU (reference value: 1991 +/- 469 mm3); assay type: functional; conditions: time 15 day
HT-29 [16] = test: Downregulation of DPD expression in 5-FU resistant human HT-29 cells incubated for 12 hrs by Western blot analysis; assay type: functional, cell-based; conditions: dose 2.5-20 µM, DDE = dose-dependent effect
Mus musculus [17] = test: In vivo inhibition of tumor DPD expression in human SW620/5-FU cells xenografted in nude mouse at 1 to 10 mg/kg/day by immunohistochemistry analysis; assay type: functional, organism-based; conditions: dose 1-10 mg/kg/day
SW620/5-FU [18] = test: Antitumor activity against human SW620/5-FU cells xenografted in nude mouse assessed as tumor growth inhibition at 10 mg/kg/day, iv in presence of 5-FU; assay type: functional; conditions: read-out: TGI
SW620/5-FU [19] = test: Antitumor activity against human SW620/5-FU cells xenografted in nude mouse assessed as tumor volume at 1 mg/kg/day, iv measured on day 15 in presence of 5-FU (reference value: 1991 +/- 469 mm3); assay type: functional; conditions: time 15 day
SW620/5-FU [20] = test: Induction of apoptosis in human SW620/5-FU cells assessed as early apoptotic cells at 20 uM incubated for 24 hrs in presence of 5-FU by Annexin-V/PI staining based flow cytometry assay (reference value: 2.73%); assay type: functional
SW620/5-FU [21] = test: Induction of apoptosis in human SW620/5-FU cells assessed as necrotic cells at 20 uM incubated for 24 hrs in presence of 5-FU by Annexin-V/PI staining based flow cytometry assay (reference value: 0%); assay type: functional
SW620/5-FU [22] = test: Antitumor activity against human SW620/5-FU cells xenografted in nude mouse assessed as tumor volume at 1 mg/kg/day, iv measured on day 1 in presence of 5-FU (reference value: 105 +/- 14 mm3); assay type: functional; conditions: time 1 day
SW620/5-FU [23] = test: Antitumor activity against human SW620/5-FU cells xenografted in nude mouse assessed as tumor wight at 1 mg/kg/day, iv in presence of 5-FU (reference value: 1.3 +/-0.6 g); assay type: functional
[24] = Toxicity in nude mouse xenografted with human SW620/5-FU cells assessed as morphological changes in spleen at 1 to 10 mg/kg/day, iv by hematoxylin-eosin staining based analysis; assay type: organism-based; conditions: in vivo, dose 1-10 mg/kg/day
SW620/5-FU [25] = test: Antitumor activity against human SW620/5-FU cells xenografted in nude mouse assessed as tumor volume at 10 mg/kg/day, iv measured on day 15 in presence of 5-FU (reference value: 1991 +/- 469 mm3); assay type: functional; conditions: time 15 day
SW620/5-FU [26] = test: Antitumor activity against human SW620/5-FU cells xenografted in nude mouse assessed as tumor wight at 5 mg/kg/day, iv in presence of 5-FU (reference value: 1.3 +/-0.6 g); assay type: functional
SW620/5-FU [27] = test: Downregulation of H3K27me3 expression in human SW620/5-FU cells at 10 uM incubated for 72 hrs by Western blot analysis; assay type: functional, cell-based
SW620/5-FU [28] = test: Antitumor activity against human SW620/5-FU cells xenografted in nude mouse assessed as tumor volume at 5 mg/kg/day, iv measured on day 1 in presence of 5-FU (reference value: 105 +/- 14 mm3); assay type: functional; conditions: time 1 day
[29] = Induction of intracellular 5-FU accumulation in human SW620/5-FU cells measured after 6 hrs by HPLC analysis (reference value: 4.3 microg/ml); assay type: functional
HT-29 [30] = test: Reversal of 5-FU resistance in human HT-29 cells assessed as fold reduction in 5-Fluorouracil IC50 at 5 uM incubated for 48 hrs; assay type: functional
SW620/5-FU [31] = test: Reversal of 5-FU resistance in human SW620/5-FU cells assessed as fold reduction in 5-Fluorouracil IC50 at 2 uM incubated for 48 hrs; assay type: functional
SW620/5-FU [32] = test: Induction of apoptosis in human SW620/5-FU cells assessed as necrotic cells at 10 uM incubated for 24 hrs by Annexin-V/PI staining based flow cytometry assay (reference value: 0%); assay type: functional
SW620/5-FU [33] = test: Antitumor activity against human SW620/5-FU cells xenografted in nude mouse assessed as tumor wight at 10 mg/kg/day, iv in presence of 5-FU (reference value: 1.3 +/- 0.6 g); assay type: functional
HCT-116 [34] = test: Reversal of 5-FU resistance in human HCT-116 cells overexpressing DPD assessed as reduction in cell viability incubated for 48 hrs in presence of 5-FU by MTT assay; assay type: functional, cell-based; conditions: HCT-116, 48 h

Sphingosine 1-phosphate receptor 2, sequence (O95136 whole entry): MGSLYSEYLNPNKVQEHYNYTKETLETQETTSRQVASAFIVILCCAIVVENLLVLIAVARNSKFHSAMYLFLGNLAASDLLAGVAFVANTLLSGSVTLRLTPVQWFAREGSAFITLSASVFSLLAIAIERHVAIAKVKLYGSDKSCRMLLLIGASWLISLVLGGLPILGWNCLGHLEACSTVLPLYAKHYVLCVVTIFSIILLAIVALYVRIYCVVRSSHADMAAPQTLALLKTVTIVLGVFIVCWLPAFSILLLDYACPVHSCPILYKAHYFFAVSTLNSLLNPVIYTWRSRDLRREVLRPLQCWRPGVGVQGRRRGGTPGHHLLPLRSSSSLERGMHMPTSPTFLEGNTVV
Sphingosine 1-phosphate receptor 1, sequence (P21453 whole entry): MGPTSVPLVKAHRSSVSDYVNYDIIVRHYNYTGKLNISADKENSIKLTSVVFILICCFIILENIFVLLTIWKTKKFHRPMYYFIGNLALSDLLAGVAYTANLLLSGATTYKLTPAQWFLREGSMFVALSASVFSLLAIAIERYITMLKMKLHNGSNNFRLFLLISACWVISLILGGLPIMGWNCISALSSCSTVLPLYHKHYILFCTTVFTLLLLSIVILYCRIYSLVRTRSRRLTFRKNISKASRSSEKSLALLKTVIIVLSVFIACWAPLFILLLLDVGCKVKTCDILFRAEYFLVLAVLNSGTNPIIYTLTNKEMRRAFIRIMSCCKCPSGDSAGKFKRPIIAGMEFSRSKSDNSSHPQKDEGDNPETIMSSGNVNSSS
Sphingosine 1-phosphate receptor 3, sequence (Q99500 whole entry): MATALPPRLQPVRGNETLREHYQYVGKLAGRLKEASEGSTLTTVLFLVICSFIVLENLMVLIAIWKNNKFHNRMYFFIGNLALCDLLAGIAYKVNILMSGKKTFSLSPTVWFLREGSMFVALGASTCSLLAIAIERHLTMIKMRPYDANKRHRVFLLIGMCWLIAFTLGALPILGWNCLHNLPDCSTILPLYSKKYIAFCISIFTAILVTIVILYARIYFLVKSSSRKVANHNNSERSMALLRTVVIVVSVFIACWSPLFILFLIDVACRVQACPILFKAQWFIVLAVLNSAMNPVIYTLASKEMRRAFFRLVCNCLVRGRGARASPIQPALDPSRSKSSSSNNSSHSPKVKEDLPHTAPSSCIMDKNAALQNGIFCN

For `CCC(CC)CN1CCN(C(=O)Nc2cc(Oc3ccc(F)cc3)cc(Oc3ccc(C(=O)NC)cc3)c2)CC1`, the Kd [1] was > 0.1 µM, the inhibition [2] was “Dde” and the Activity (SW620/5-FU [3]) was “Dde”. For the same compound, the IC50 (SW620/5-FU [4]) was > 100 µM, the viability at 10 µM (SW620/5-FU [5]) was 87.7% and the inhibition (Mus musculus [6]) was “Active”. The Kd [7] was > 0.1 µM, the Activity (SW620/5-FU [8]) was 104 mm3 and the IC50 (HT-29 [9]) was 2.51 µM. The inhibition (Mus musculus [10]) was “Active”, the Activity (SW620/5-FU [11]) was 0.17% and the Activity (SW620/5-FU [12]) was “Dde”. For the same compound, the IC50 (HCT-116 [13]) was 45.1 µM, the remaining at 48 h, 1 mg/ml [14] was 96.4% and the Activity (SW620/5-FU [15]) was 662 mm3. For the same compound, the Activity (HT-29 [16]) was “Dde”, the inhibition (Mus musculus [17]) was “Active” and the inhibition in vivo at 10 mg/kg/day (SW620/5-FU [18]) was 73.8%. It also gave an Activity (SW620/5-FU [19]) of 1006 mm3, an Activity (SW620/5-FU [20]) of 28.6% and an Activity (SW620/5-FU [21]) of 0.076%. For the same compound, the Activity (SW620/5-FU [22]) was 104 mm3, the Activity (SW620/5-FU [23]) was 0.6 g and the Activity [24] was “Non-Toxic”. The Activity (SW620/5-FU [25]) was 521 mm3, the Activity (SW620/5-FU [26]) was 0.5 g and the Activity (SW620/5-FU [27]) was “Active”. For the same compound, the Activity (SW620/5-FU [28]) was 103 mm3, the Activity [29] was 12.2 µg/mL and the “fold change (FC)” value (HT-29 [30]) was 127. The “fold change (FC)” value (SW620/5-FU [31]) was 42, the Activity (SW620/5-FU [32]) was 0.042% and the Activity (SW620/5-FU [33]) was 0.3 g. For the same compound, the IC50 (HCT-116 [34]) was 6.42 µM.
